Molecular target: Cav3.2 (Homo sapiens, UniProt O95180)
Experiment: Calcium flux FLIPR assay, HEK293 cells recombinantly expressing Cav3.2
Type: cell-based
Settings: Cav3.2-channel, Ca2+ entry stimulated by 10 mM CaCl2
Description: In Vitro Methods—Measurement of Calcium Channel Flux by Means of FLIPR Assays.
HEK293 cells recombinantly expressing either voltage-dependent T-type calcium channel subunit […] (Cav3.2) or voltage-dependent L-type calcium channel subunit alpha-1C (Cav1.2) are assayed for calcium flux using the calcium indicator dye Fluo-4-AM (Molecular Devices) and FLIPR technology (Fluorometric Imaging Plate Reader, Molecular Devices) (Xie X, Van Deusen A L, Vitko I, Babu D A, Davies L A, Huynh N, Cheng H, Yang N, Barrett P Q, Perez-Reyes E. Validation of high throughput screening assays against three subtypes of Ca(v)3 T-type channels using molecular and pharmacologic approaches. Assay and Drug Development Technologies 2007, 5(2), 191-203). The HEK293 cells recombinantly expressing Cav3.2 are maintained in DMEM growth medium (Life Technologies) supplemented with 10% Fetal Bovine Serum (FBS), 100 U/ml penicilin (Life Technologies), 100 μg/ml streptomycin (Life Technologies) and 1 mg/ml G418 (Life Technologies). HEK293 cells recombinantly expressing Cav1.2 are maintained in DMEM growth medium (Life technologies) supplemented with 10% FBS, 0.1 mg/ml G418 (Life Technologies), 0.1 mg/ml hygromycin (Life Technologies) and 40 ug/ml zeocin (Life Technologies).
Cells are washed once with PBS, then dissociated in 0.25% trypsin/EDTA (Life Technologies) and seeded into poly-D-lysine coated 384-well black, clear bottom plates (BD Biosciences) at a density of 30,000 cells/well. The seeded plates are incubated overnight at 37° C.
Immediately prior to performing the assay, medium is removed and cells are treated for 1 hour at 37° C. with loading buffer containing HBSS 1× (137 mM NaCl; 5.4 mM KCl; 0.25 mM Na2HPO4; 1.3 mM CaCl2; 0.4 mM MgSO04; 0.5 mM MgCl2; 0.4 mM KH2PO4, pH 7.4), 0.375 g/L NaHCO3, 20 mM Hepes, supplemented with 3 μM Fluo-4-AM and 0.15% Pluronic (Life Technologies). The cells are then washed three times with assay buffer (HBSS 1×; 0.375 g/L NaHCO3; 20 mM Hepes; 1% FBS; pH 7.4) and allowed to rest in 50 μl of wash buffer for 30 minutes.
Stock solutions of test compounds are prepared to a concentration of 10 mM in DMSO. For the Cav3.2 assay, serial dilutions of the compounds are prepared in TEAC buffer (100 mM tetraethylammonium chloride; 20 mM Hepes; 2.5 mM CaCl2; 5 mM KCl; 1 mM MgCl2; 1% FBS; pH 7.2), for the Cav1.2 assay serial dilutions are prepared in assay buffer. […] The compounds are incubated with the cells for 3 minutes and Ca2+ entry is stimulated by adding either CaCl2 to a final concentration of 10 mM (Cav3.2 assay) or by adding KCl to a final concentration of 20 mM (Cav1.2 assay). The kinetics of fluorescence increase are recorded for every well and the area under the fluorescence trace for every compound concentration is used to generate inhibition curves using non-linear regression sigmoidal concentration-response curve analysis with in-house software. IC50 values are calculated and represent the compound concentration required to inhibit 50% of the signal that is obtained in the presence of vehicle instead of test compound.

Cav3.2, sequence (O95180 whole entry, looked up): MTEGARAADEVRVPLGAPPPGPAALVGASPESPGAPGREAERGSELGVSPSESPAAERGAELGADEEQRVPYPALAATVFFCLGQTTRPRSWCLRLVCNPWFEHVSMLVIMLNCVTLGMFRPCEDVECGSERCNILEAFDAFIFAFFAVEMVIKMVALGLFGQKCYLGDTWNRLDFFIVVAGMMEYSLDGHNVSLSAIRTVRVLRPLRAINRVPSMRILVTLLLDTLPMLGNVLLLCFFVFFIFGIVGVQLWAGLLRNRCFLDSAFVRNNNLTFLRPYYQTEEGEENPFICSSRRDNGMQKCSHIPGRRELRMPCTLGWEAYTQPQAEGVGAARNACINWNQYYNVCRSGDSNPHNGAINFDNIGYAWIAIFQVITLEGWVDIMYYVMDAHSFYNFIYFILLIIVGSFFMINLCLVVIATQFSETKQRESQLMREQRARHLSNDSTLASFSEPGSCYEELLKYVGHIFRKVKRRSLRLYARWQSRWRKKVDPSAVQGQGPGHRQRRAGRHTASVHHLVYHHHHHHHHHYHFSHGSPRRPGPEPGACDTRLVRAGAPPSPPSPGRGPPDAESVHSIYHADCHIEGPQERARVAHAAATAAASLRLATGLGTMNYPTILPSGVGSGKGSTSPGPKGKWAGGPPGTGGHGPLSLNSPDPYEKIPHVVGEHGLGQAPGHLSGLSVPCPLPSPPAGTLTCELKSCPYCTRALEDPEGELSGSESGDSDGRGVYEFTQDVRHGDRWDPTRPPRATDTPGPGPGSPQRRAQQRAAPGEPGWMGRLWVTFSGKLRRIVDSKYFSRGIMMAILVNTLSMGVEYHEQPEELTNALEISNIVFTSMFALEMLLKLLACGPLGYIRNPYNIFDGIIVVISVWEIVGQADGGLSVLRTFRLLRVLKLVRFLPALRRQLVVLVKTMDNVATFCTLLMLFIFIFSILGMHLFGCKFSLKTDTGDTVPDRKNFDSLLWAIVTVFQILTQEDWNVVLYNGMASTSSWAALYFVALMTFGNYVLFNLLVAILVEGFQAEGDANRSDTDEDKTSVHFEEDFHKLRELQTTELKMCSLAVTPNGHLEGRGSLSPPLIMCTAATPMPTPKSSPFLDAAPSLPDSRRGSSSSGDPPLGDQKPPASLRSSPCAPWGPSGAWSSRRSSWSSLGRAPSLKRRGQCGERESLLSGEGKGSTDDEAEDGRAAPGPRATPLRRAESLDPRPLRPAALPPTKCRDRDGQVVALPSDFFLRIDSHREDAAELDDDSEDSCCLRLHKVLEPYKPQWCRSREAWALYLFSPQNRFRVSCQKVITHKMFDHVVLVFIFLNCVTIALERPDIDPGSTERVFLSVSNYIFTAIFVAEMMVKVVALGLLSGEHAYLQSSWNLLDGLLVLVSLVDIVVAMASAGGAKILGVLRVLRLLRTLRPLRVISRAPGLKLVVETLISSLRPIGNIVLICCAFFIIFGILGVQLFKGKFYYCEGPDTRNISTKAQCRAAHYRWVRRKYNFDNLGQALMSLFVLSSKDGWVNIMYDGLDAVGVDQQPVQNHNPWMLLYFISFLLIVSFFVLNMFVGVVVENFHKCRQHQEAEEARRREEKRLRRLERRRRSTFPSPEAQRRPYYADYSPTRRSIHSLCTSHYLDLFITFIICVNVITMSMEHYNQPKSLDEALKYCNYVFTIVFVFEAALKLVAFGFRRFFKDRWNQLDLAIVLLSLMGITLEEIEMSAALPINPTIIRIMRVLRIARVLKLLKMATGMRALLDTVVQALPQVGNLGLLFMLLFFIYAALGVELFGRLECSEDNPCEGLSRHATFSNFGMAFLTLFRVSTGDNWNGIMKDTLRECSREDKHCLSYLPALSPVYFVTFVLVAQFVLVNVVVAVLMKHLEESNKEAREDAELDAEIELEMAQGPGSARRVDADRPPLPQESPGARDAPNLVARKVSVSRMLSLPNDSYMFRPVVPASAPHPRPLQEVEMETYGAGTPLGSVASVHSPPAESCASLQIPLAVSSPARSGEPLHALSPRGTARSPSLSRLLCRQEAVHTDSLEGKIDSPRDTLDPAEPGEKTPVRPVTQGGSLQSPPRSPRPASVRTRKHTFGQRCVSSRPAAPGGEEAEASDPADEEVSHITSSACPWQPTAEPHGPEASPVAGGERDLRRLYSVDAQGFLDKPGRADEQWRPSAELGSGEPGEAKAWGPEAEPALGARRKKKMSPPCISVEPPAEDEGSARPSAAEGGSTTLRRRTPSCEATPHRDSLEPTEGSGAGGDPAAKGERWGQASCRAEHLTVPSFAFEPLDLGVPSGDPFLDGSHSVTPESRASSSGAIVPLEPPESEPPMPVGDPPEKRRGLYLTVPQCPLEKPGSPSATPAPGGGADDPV

IC50 [nM]	Compound
21	CC(C)c1ccc(CC(=O)Nc2cnn(Cc3ccc(F)cc3)n2)cc1 [Example 1, N-[2-(4-Fluoro-benzyl)-2H-[1,2,3]triazol4-yl]-2-(4-isopropyl-phenyl)-acetamide]
17	CN(C)c1ccc(CC(=O)Nc2cnn(Cc3ccc(F)cc3)n2)cc1 [Example 2, 2-(4-Dimethylamino-phenyl)-N-[2-(4-fluoro-benzyl)-2H-[1,2,3]triazol-4-yl]-acetamide]
30	CC(C)c1ccc(CC(=O)Nc2cnn(Cc3ccc(F)c(F)c3)n2)cc1 [Example 5, N-[2-(3,4-Difluoro-benzyl)-2H-[1,2,3]triazol-4-yl]-2-(4-isopropyl-phenyl)-acetamide]
6.4	Cn1ccc2cc(CC(=O)Nc3cnn(Cc4ccc(F)c(F)c4)n3)ccc21 [Example 7, N-[2-(3,4-Difluoro-benzyl)-2H-[1,2,3]triazol-4-yl]-2-(1-methyl-1H-indol-5-yl)-acetamide]
37	O=C(Cc1ccc2cc[nH]c2c1)Nc1cnn(Cc2ccc(F)c(F)c2)n1 [Example 8, N-[2-(3,4-Difluoro-benzyl)-2H-[1,2,3]triazol-4-yl]-2-(1H-indol-6-yl)-acetamide]
23	O=C(Cc1ccc(OC2CC2)cc1)Nc1cnn(Cc2ccc(F)c(F)c2)n1 [Example 10, 2-(4-Cyclopropoxy-phenyl)-N-[2-(3,4-difluoro-benzyl)-2H-[1,2,3]triazol-4-yl]-acetamide]
32	CN(c1ccc(CC(=O)Nc2cnn(Cc3ccc(F)c(F)c3)n2)cn1)C1CC1 [Example 11]
31	CN(CC1CC1)c1ccc(CC(=O)Nc2cnn(Cc3ccc(F)c(F)c3)n2)cn1 [Example 12, 2-[6-(Cyclopropylmethyl-methyl-amino)-pyridin-3-yl]-N-[2-(3,4-difluoro-benzyl)-2H-[1,2,3]triazol-4-yl]-acetamide]
17	O=C(Cc1ccc(C2(F)COC2)cc1)Nc1cnn(Cc2ccc(F)c(F)c2)n1 [Example 14, N-[2-(3,4-Difluoro-benzyl)-2H-[1,2,3]triazol-4-yl]-2-[4-(3-fluoro-oxetan-3-yl)-phenyl]-acetamide]
40	O=C(Cc1ccc2[nH]ccc2c1)Nc1cnn(Cc2ccc(F)c(F)c2)n1 [Example 15, N-[2-(3,4-Difluoro-benzyl)-2H-[1,2,3]triazol-4-yl]-2-(1H-indol-5-yl)-acetamide]
15	CCN(CC)c1ccc(CC(=O)Nc2cnn(Cc3ccc(F)c(F)c3)n2)cn1 [Example 16, 2-(6-Diethylamino-pyridin-3-yl)-N-[2-(3,4-difluoro-benzyl)-2H-[1,2,3]triazol-4-yl]-acetamide]
7.3	O=C(Cc1ccc(N2CCC(F)(F)C2)nc1)Nc1cnn(Cc2ccc(F)c(F)c2)n1 [Example 17, N-[2-(3,4-Difluoro-benzyl)-2H-[1,2,3]triazol-4-yl]-2-[6-(3,3-difluoro-pyrrolidin-1-yl)-pyridin-3-yl]-acetamide]
15	O=C(Cc1ccc(N2CCCC2)nc1)Nc1cnn(Cc2ccc(F)c(F)c2)n1 [Example 18, N-[2-(3,4-Difluoro-benzyl)-2H-[1,2,3]triazol-4-yl]-2-(6-pyrrolidin-1-yl-pyridin-3-yl)-acetamide]
9.7	CN1C(=O)C(C)(C)c2cc(CC(=O)Nc3cnn(Cc4ccc(F)c(F)c4)n3)ccc21 [Example 19, N-[2-(3,4-Difluoro-benzyl)-2H-[1,2,3]triazol-4-yl]-2-(1,3,3-trimethyl-2-oxo-2,3-dihydro-1H-indol-5-yl)-acetamide]
89	COC1(c2ccc(CC(=O)Nc3cnn(Cc4ccc(F)c(F)c4)n3)cc2)COC1 [Example 20, N-[2-(3,4-Difluoro-benzyl)-2H-[1,2,3]triazol-4-yl]-2-[4-(3-methoxy-oxetan-3-yl)-phenyl]-acetamide]
15	CC1(c2ccc(CC(=O)Nc3cnn(Cc4ccc(F)c(F)c4)n3)cc2)COC1 [Example 22, N-[2-(3,4-Difluoro-benzyl)-2H-[1,2,3]triazol-4-yl]-2-[4-(3-methyl-oxetan-3-yl)-phenyl]-acetamide]
46	O=C(Cc1ccc(C2COC2)cc1)Nc1cnn(Cc2ccc(F)c(F)c2)n1 [Example 23, N-[2-(3,4-Difluoro-benzyl)-2H-[1,2,3]triazol-4-yl]-2-(4-oxetan-3-yl-phenyl)-acetamide]
37	Cc1ccc(Cn2ncc(NC(=O)Cc3ccc(C(C)C)cc3)n2)cc1 [Example 24, 2-(4-Isopropyl-phenyl)-N-[2-(4-methyl-benzyl)-2H-[1,2,3]triazol-4-yl]-acetamide]
33	COc1ccc(Cn2ncc(NC(=O)Cc3ccc(C(C)C)cc3)n2)cc1 [Example 25, 2-(4-Isopropyl-phenyl)-N-[2-(4-methoxy-benzyl)-2H-[1,2,3]triazol-4-yl]-acetamide]
19	CC(C)c1ccc(CC(=O)Nc2cnn(Cc3ccc(C#N)cc3)n2)cc1 [Example 26, N-[2-(4-Cyano-benzyl)-2H-[1,2,3]triazol-4-yl]-2-(4-isopropyl-phenyl)-acetamide]
9.8	CCn1ncc2cc(CC(=O)Nc3cnn(Cc4ccc(F)c(F)c4)n3)ccc21 [Example 27, N-[2-(3,4-Difluoro-benzyl)-2H-[1,2,3]triazol-4-yl]-2-(1-ethyl-1H-indazol-5-yl)-acetamide]
22	Cc1nn(C)c2ccc(CC(=O)Nc3cnn(Cc4ccc(F)c(F)c4)n3)cc12 [Example 28, N-[2-(3,4-Difluoro-benzyl)-2H-[1,2,3]triazol-4-yl]-2-(1,3-dimethyl-1H-indazol-5-yl)-acetamide]
120	O=C(Cc1ccc2[nH]nc(C3CC3)c2c1)Nc1cnn(Cc2ccc(F)c(F)c2)n1 [Example 29, 2-(3-Cyclopropyl-1H-indazol-5-yl)-N-[2-(3,4-difluoro-benzyl)-2H-[1,2,3]triazol-4-yl]-acetamide]
17	CCCCn1ncc2cc(CC(=O)Nc3cnn(Cc4ccc(F)c(F)c4)n3)ccc21 [Example 30, 2-(1-Butyl-1H-indazol-5-yl)-N-[2-(3,4-difluoro-benzyl)-2H-[1,2,3]triazol-4-yl]-acetamide]
11	Cc1cc2cc(CC(=O)Nc3cnn(Cc4ccc(F)c(F)c4)n3)ccc2[nH]1 [Example 31, N-[2-(3,4-Difluoro-benzyl)-2H-[1,2,3]triazol-4-yl]-2-(2-methyl-1H-indol-5-yl)-acetamide]
74	CCCCc1n[nH]c2ccc(CC(=O)Nc3cnn(Cc4ccc(F)c(F)c4)n3)cc12 [Example 32, 2-(3-Butyl-1H-indazol-5-yl)-N-[2-(3,4-difluoro-benzyl)-2H-[1,2,3]triazol-4-yl]-acetamide]
24	CC(C)n1ncc2cc(CC(=O)Nc3cnn(Cc4ccc(F)c(F)c4)n3)ccc21 [Example 33, N-[2-(3,4-Difluoro-benzyl)-2H-[1,2,3]triazol-4-yl]-2-(1-isopropyl-1H-indazol-5-yl)-acetamide]
18	CCCn1ncc2cc(CC(=O)Nc3cnn(Cc4ccc(F)c(F)c4)n3)ccc21 [Example 34, N-[2-(3,4-Difluoro-benzyl)-2H-[1,2,3]triazol-4-yl]-2-(1-propyl-1H-indazol-5-yl)-acetamide]
29	Cn1nc(C2CC2)c2cc(CC(=O)Nc3cnn(Cc4ccc(F)c(F)c4)n3)ccc21 [Example 35, 2-(3-Cyclopropyl-1-methyl-1H-indazol-5-yl)-N-[2-(3,4-difluoro-benzyl)-2H-[1,2,3]triazol-4-yl]-acetamide]
580	Cn1ncc2cc(CC(=O)Nc3cnn(Cc4ccc(F)c(F)c4)n3)cnc21 [Example 38, N-[2-(3,4-Difluoro-benzyl)-2H-[1,2,3]triazol-4-yl]-2-(1-methyl-1H-pyrazolo[3,4-b]pyridin-5-yl)-acetamide]

Compound	IC50 [nM]
O=C(Cc1ccc(OC2CCC2)cc1)Nc1cnn(Cc2ccc(F)c(F)c2)n1 [Example 9, 2-(4-Cyclobutoxy-phenyl)-N-[2-(3,4-difluoro-benzyl)-2H-[1,2,3]triazol-4-yl]-acetamide]	22
